We go through seven compounds from PubChem BioAssay AID1259407 (Chemical Carcinogenesis Research Information System (CCRIS), 2018).

The data set concerns CCRIS mutagenicity, Ames/micronucleus/aberration tests. Kind of data set: CCRIS mutagenicity studies.
The mark [1] stands for this setting: Test System: AMES SALMONELLA TYPHIMURIUM, Strain/Indicator: TA98, Metabolic Activation: NONE, Method: STANDARD PLATE.
The mark [2] stands for this setting: Test System: AMES SALMONELLA TYPHIMURIUM, Strain/Indicator: TA98, Metabolic Activation: RAT, LIVER, S-9, AROCLOR 1254, Method: STANDARD PLATE.
Where [3] appears, read: Test System: AMES SALMONELLA TYPHIMURIUM, Strain/Indicator: TA100, Metabolic Activation: NONE, Method: STANDARD PLATE.
Where [4] appears, read: Test System: AMES SALMONELLA TYPHIMURIUM, Strain/Indicator: TA100, Metabolic Activation: RAT, LIVER, S-9, AROCLOR 1254, Method: STANDARD PLATE.
The mark [5] stands for this setting: Test System: AMES SALMONELLA TYPHIMURIUM, Strain/Indicator: TA1535, Metabolic Activation: NONE, Method: STANDARD PLATE.
[6] abbreviates: Test System: AMES SALMONELLA TYPHIMURIUM, Strain/Indicator: TA1535, Metabolic Activation: RAT, LIVER, S-9, AROCLOR 1254, Method: STANDARD PLATE.
[7] abbreviates: Test System: AMES SALMONELLA TYPHIMURIUM, Strain/Indicator: TA1537, Metabolic Activation: NONE, Method: STANDARD PLATE.
[8] abbreviates: Test System: AMES SALMONELLA TYPHIMURIUM, Strain/Indicator: TA1537, Metabolic Activation: RAT, LIVER, S-9, AROCLOR 1254, Method: STANDARD PLATE.
Setting [9] is: Test System: AMES SALMONELLA TYPHIMURIUM, Strain/Indicator: TA98, Metabolic Activation: NONE, Method: PREINCUBATION

Active and inactive are the calls of the source. The rule behind the calls is not given here.

On to `CC(C)(C)OC(=O)O/N=C(/C#N)c1ccccc1`, for which the mutagenic call is, setting by setting: under setting [1], “inactive; negative”; under setting [2], “inactive; negative”; under setting [3], “inactive; negative”; under setting [4], “inactive; negative”; under setting [5], “inactive; negative”; under setting [6], “inactive; negative”. Further, the mutagenic call was “inactive; negative” under setting [7] and “inactive; negative” under setting [8].
In the case of `N#CCC#N`, the mutagenic call runs as follows: (Test System: AMES SALMONELLA TYPHIMURIUM, Strain/Indicator: TA97, Metabolic Activation: HAMSTER, LIVER, S-9, AROCLOR 1254 (10%), Method: PREINCUBATION) “inactive; negative”; (Test System: AMES SALMONELLA TYPHIMURIUM, Strain/Indicator: TA97, Metabolic Activation: HAMSTER, LIVER, S-9, AROCLOR 1254 (30%), Method: PREINCUBATION) “inactive; negative”; (Test System: AMES SALMONELLA TYPHIMURIUM, Strain/Indicator: TA97, Metabolic Activation: NONE, Method: PREINCUBATION) “inactive; negative”; (Test System: AMES SALMONELLA TYPHIMURIUM, Strain/Indicator: TA97, Metabolic Activation: RAT, LIVER, S-9, AROCLOR 1254 (10%), Method: PREINCUBATION) “inactive; negative”; (Test System: AMES SALMONELLA TYPHIMURIUM, Strain/Indicator: TA97, Metabolic Activation: RAT, LIVER, S-9, AROCLOR 1254 (30%), Method: PREINCUBATION) “inactive; negative”; (Test System: AMES SALMONELLA TYPHIMURIUM, Strain/Indicator: TA98, Metabolic Activation: HAMSTER, LIVER, S-9, AROCLOR 1254 (10%), Method: PREINCUBATION) “inactive; negative”. Further, the mutagenic call (Test System: AMES SALMONELLA TYPHIMURIUM, Strain/Indicator: TA98, Metabolic Activation: HAMSTER, LIVER, S-9, AROCLOR 1254 (30%), Method: PREINCUBATION) is “inactive; negative”; the mutagenic call under setting [9] is “inactive; negative”; the mutagenic call (Test System: AMES SALMONELLA TYPHIMURIUM, Strain/Indicator: TA98, Metabolic Activation: RAT, LIVER, S-9, AROCLOR 1254 (10%), Method: PREINCUBATION) was “inactive; negative”; the mutagenic call (Test System: AMES SALMONELLA TYPHIMURIUM, Strain/Indicator: TA98, Metabolic Activation: RAT, LIVER, S-9, AROCLOR 1254 (30%), Method: PREINCUBATION) was “inactive; negative”; the mutagenic call (Test System: AMES SALMONELLA TYPHIMURIUM, Strain/Indicator: TA100, Metabolic Activation: HAMSTER, LIVER, S-9, AROCLOR 1254 (10%), Method: PREINCUBATION) is “inactive; negative”; the mutagenic call (Test System: AMES SALMONELLA TYPHIMURIUM, Strain/Indicator: TA100, Metabolic Activation: HAMSTER, LIVER, S-9, AROCLOR 1254 (30%), Method: PREINCUBATION) was “inactive; negative”. Further, the mutagenic call is “inactive; negative” (Test System: AMES SALMONELLA TYPHIMURIUM, Strain/Indicator: TA100, Metabolic Activation: NONE, Method: PREINCUBATION); “inactive; negative” (Test System: AMES SALMONELLA TYPHIMURIUM, Strain/Indicator: TA100, Metabolic Activation: RAT, LIVER, S-9, AROCLOR 1254 (10 OR 30%), Method: PREINCUBATION); “inactive; negative” (Test System: AMES SALMONELLA TYPHIMURIUM, Strain/Indicator: TA1535, Metabolic Activation: HAMSTER, LIVER, S-9, AROCLOR 1254 (10%), Method: PREINCUBATION); “inactive; negative” (Test System: AMES SALMONELLA TYPHIMURIUM, Strain/Indicator: TA1535, Metabolic Activation: HAMSTER, LIVER, S-9, AROCLOR 1254 (30%), Method: PREINCUBATION); “inactive; negative” (Test System: AMES SALMONELLA TYPHIMURIUM, Strain/Indicator: TA1535, Metabolic Activation: NONE, Method: PREINCUBATION); “inactive; negative” (Test System: AMES SALMONELLA TYPHIMURIUM, Strain/Indicator: TA1535, Metabolic Activation: RAT, LIVER, S-9, AROCLOR 1254 (10 OR 30%), Method: PREINCUBATION).
On to `CSC1=N[C@@](C)(c2ccccc2)C(=O)N1Nc1ccccc1`, for which the mutagenic call reads like this: (End Point: In vitro chromosomal aberrations, Test System: Human peripheral blood lymphocytes, Metabolic Activation: None) “active; positive”; (End Point: In vitro chromosomal aberrations, Test System: Human peripheral blood lymphocytes, Metabolic Activation: S-9) “active; positive”; (End Point: In vivo micronucleus, Test System: Bone marrow polychromatic erythrocytes, Species: Mouse, Strain/Sex: CD-1/Male and female, Route: Intraperitoneal) “inactive; negative”; (End Point: UDS, Test System: Rat hepatocytes, Species: Wistar/Male, Method: Autoradiography) “inactive; negative. (higher doses too toxic to score)”; (Test System: Ames Salmonella typhimurium, Strain/Indicator: TA98, Metabolic Activation: None, Method: Plate incorporation and preincubation) “inactive; negative”; (Test System: Ames Salmonella typhimurium, Strain/Indicator: TA98, Metabolic Activation: Rat, Liver, S-9, Method: Plate incorporation and preincubation) “inactive; negative”. The mutagenic call is, setting by setting: (Test System: Ames Salmonella typhimurium, Strain/Indicator: TA100, Metabolic Activation: None, Method: Plate incorporation and preincubation) “inactive; negative”; (Test System: Ames Salmonella typhimurium, Strain/Indicator: TA100, Metabolic Activation: Rat, Liver, S-9, Method: Plate incorporation and preincubation) “inactive; negative”; (Test System: Ames Salmonella typhimurium, Strain/Indicator: TA102, Metabolic Activation: None, Method: Plate incorporation and preincubation) “inactive; negative”; (Test System: Ames Salmonella typhimurium, Strain/Indicator: TA102, Metabolic Activation: Rat, Liver, S-9, Method: Plate incorporation and preincubation) “inactive; negative”; (Test System: Ames Salmonella typhimurium, Strain/Indicator: TA1535, Metabolic Activation: None, Method: Plate incorporation and preincubation) “inactive; negative”; (Test System: Ames Salmonella typhimurium, Strain/Indicator: TA1535, Metabolic Activation: Rat, Liver, S-9, Method: Plate incorporation and preincubation) “inactive; negative”. Also, the mutagenic call by setting is: (Test System: Ames Salmonella typhimurium, Strain/Indicator: TA1537, Metabolic Activation: None, Method: Plate incorporation and preincubation) “inactive; negative”; (Test System: Ames Salmonella typhimurium, Strain/Indicator: TA1537, Metabolic Activation: Rat, Liver, S-9, Method: Plate incorporation and preincubation) “inactive; negative”; (Test System: Mouse lymphoma, Strain/Indicator: L5178Y (tk+/tk-), Metabolic Activation: None, Method: Microtiter fluctuation) “inactive; negative”; (Test System: Mouse lymphoma, Strain/Indicator: L5178Y (tk+/tk-), Metabolic Activation: S-9, Method: Microtiter fluctuation) “active; positive. (increase in small colony mutant frequency indicates clastogenicity)”.
For `CC(=O)[CH-]C(=O)c1ccccc1.CC(=O)[CH-]C(=O)c1ccccc1.CC[O-].CC[O-].[Ti+4]`, the mutagenic call by setting is: under setting [1], “inactive; negative”; under setting [2], “inactive; negative”; under setting [3], “inactive; negative”; (Test System: AMES SALMONELLA TYPHIMURIUM, Strain/Indicator: TA100, Metabolic Activation: RAT, LIVER, S-9, AROCLOR 1254, Method: PREINCUBATION) “inactive; negative”; under setting [4], “inactive; negative”; under setting [5], “inactive; negative”. The mutagenic call was “inactive; negative” (Test System: AMES SALMONELLA TYPHIMURIUM, Strain/Indicator: TA1535, Metabolic Activation: RAT, LIVER, S-9, AROCLOR 1254, Method: PREINCUBATION); “inactive; negative” under setting [6]; “inactive; negative” under setting [7]; “inactive; negative” under setting [8]; “inactive; negative” (Test System: AMES SALMONELLA TYPHIMURIUM, Strain/Indicator: TA1538, Metabolic Activation: NONE, Method: STANDARD PLATE); “inactive; negative” (Test System: AMES SALMONELLA TYPHIMURIUM, Strain/Indicator: TA1538, Metabolic Activation: RAT, LIVER, S-9, AROCLOR 1254, Method: STANDARD PLATE).
With `c1ccc2c(c1)COC2`, the mutagenic call under setting [9] was “active; positive”.
With `C[N+](C)(C)CC(=O)O`, the mutagenic call by setting is: under setting [3], “inactive; negative”; under setting [4], “inactive; negative”.
Turning to `O=C1CCc2c1cc(C(F)(F)F)c1c3c(ccc21)[C@H](O)[C@@H](O)C=C3`, where the note is “Test System: AMES SALMONELLA TYPHIMURIUM, Strain/Indicator: TA100, Metabolic Activation: RAT, LIVER, S-9, AROCLOR 1254”, the mutagenic call is “active; positive”.
